This passage reports IC50 results from US11912668B2, “GCN2 and perk kinase inhibitors and methods of use thereof” (Deciphera Pharmaceuticals, LLC, priority 2020, dated 2024).

Test [1] addresses GCN2 kinase (Homo sapiens (Human), UniProt Q9P2K8). As to the kind of experiment: Biochemical assay for GCN2 (TR-FRET kinase activity assay). To be noted: 1 mM ATP, 3-hour incubation. As to the method: Activity of GCN2 kinase was determined using a TR-FRET kinase activity assay (e.g. Riddle et al. Analytical Biochemistry (2006) 356(1) 108-116). Assays were conducted in 384-well plates (13 μL assay volume) using 2 nM GCN2 (Carna Biosciences), 130 nM GFP-EIf2α (Invitrogen), 0.2 mg/mL E. coli tRNA (sigma) and 1 mM ATP in kinase buffer (Invitrogen). Inhibition of GCN2 was measured by adding serial diluted test compound (final assay concentration of 0.5% DMSO) followed by a 3-hour incubation. Tb-peIF2α (pSer52) antibody (Invitrogen) (2 nM final assay concentration) in kinase buffer containing ETDA (final assay concentration of 20 mM) was added. After a 60 min incubation at room temperature, TR-FRET was monitored using an excitation wavelength of 340 nm and emission wavelengths of 490 nm and 520 nm. The emission ratio (520/490) at each compound concentration of was converted to percent inhibition using controls (i.e. reaction with no test compound and reaction with a known inhibitor) and IC50 values were calculated by fitting a four-parameter sigmoidal curve to the data using Prism (GraphPad software).
For orientation: In TR-FRET formats the signal depends on donor and acceptor labels being close together.

The target of test [2] is PERK kinase (Homo sapiens (Human), UniProt Q9NZJ5). As to the kind of experiment: Biochemical assay for PERK (coupled pyruvate kinase/lactate dehydrogenase assay). The conditions noted are these: 1 mM ATP, rate from 2-3 h time frame. As to the method:
Activity of PERK kinase was determined spectroscopically using a coupled pyruvate kinase/lactate dehydrogenase assay that continuously monitors the ATP hydrolysis-dependent oxidation of NADH (e.g., Schindler et al. Science (2000) 289: 1938-1942). Assays were conducted in 384-well plates (100 μL final volume) using 10 nM PERK (from Beryllium), 0.25 mg/mL Myelin Basic Protein substrate, 1.5 units pyruvate kinase, 2.1 units lactate dehydrogenase, 1 mM phosphoenol pyruvate, 0.28 mM NADH and 1 mM ATP in assay buffer (100 mM Tris, pH 7.5, 15 mM MgCl2, 0.5 mM DTT, 0.004% (w/v) BSA, and 0.004% Triton X-100). Inhibition of PERK was measured by adding serial diluted test compound (final assay concentration of 1% DMSO). A decrease in absorption at 340 nm was monitored continuously for 6 hours at 30° C. on a multi-mode microplate reader (BioTek). The reaction rate was calculated using the 2-3 h time frame. The reaction rate at each concentration of compound was converted to percent inhibition using controls (i.e. reaction with no test compound and reaction with a known inhibitor) and IC50 values were calculated using software routines in Prism (GraphPad software).

The structures appear in SMILES notation.

Chain of PERK kinase (Q9NZJ5 other isoform, or with tags, fused parts or gaps): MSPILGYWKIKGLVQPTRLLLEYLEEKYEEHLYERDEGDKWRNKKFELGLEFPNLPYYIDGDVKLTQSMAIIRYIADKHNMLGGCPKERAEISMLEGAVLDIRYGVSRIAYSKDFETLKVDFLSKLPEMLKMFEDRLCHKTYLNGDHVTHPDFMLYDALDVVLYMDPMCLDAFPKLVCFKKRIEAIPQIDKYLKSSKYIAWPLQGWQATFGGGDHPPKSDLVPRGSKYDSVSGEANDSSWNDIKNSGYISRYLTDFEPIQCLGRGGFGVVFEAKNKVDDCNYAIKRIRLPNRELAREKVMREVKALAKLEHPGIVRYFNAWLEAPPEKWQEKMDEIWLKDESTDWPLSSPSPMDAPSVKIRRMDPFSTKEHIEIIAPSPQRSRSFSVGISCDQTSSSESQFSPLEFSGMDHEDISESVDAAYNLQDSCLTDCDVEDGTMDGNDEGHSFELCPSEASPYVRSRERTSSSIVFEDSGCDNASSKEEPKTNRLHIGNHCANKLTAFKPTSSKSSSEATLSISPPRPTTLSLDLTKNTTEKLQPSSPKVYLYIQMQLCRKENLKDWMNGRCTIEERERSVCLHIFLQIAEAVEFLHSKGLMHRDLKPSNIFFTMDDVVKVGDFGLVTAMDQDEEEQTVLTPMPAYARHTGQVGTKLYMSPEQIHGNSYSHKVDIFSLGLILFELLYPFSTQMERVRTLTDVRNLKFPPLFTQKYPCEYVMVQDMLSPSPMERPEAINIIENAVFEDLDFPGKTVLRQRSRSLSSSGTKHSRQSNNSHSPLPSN
Chain of GCN2 kinase (Q9P2K8 whole entry): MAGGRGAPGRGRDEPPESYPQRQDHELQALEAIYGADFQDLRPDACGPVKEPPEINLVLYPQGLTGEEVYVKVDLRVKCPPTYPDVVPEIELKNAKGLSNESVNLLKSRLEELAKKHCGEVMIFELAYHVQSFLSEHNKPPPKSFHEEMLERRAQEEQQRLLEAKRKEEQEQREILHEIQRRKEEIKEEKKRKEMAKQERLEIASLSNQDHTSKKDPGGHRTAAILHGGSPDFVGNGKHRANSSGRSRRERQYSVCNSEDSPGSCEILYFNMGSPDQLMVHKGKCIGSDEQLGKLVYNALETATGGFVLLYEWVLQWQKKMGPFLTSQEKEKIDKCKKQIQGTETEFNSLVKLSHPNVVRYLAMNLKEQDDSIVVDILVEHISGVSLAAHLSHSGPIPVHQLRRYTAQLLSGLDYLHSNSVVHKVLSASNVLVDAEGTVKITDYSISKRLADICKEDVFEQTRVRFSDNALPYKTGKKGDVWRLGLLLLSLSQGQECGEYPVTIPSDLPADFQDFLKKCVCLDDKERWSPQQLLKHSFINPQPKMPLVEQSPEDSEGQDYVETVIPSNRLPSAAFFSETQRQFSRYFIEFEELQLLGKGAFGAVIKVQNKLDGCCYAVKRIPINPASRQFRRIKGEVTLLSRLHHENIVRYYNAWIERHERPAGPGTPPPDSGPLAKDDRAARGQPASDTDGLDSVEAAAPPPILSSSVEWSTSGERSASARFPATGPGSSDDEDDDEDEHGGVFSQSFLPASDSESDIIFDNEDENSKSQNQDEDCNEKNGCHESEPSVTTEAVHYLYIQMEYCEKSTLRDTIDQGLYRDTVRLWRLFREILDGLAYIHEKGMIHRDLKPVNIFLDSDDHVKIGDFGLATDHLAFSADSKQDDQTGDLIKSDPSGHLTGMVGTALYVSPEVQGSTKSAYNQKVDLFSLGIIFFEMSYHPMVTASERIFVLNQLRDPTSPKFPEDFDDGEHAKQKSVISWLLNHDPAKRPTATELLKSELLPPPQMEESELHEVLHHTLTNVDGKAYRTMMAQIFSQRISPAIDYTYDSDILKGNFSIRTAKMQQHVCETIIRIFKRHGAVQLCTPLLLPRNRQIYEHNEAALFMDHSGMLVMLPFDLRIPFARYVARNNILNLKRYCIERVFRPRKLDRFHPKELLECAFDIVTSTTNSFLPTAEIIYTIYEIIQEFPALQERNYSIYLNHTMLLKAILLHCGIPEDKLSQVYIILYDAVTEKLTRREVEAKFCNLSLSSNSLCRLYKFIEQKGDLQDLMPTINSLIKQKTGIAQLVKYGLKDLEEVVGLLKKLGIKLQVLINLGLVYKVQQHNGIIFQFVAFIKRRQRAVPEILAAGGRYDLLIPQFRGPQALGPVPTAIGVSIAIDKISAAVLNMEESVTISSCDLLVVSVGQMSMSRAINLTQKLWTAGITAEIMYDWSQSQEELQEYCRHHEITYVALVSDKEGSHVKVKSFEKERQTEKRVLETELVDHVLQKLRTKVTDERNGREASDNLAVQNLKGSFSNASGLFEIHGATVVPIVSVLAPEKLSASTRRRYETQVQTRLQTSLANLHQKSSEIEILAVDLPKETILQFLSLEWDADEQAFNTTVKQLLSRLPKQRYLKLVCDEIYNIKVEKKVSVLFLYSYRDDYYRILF

One may read the IC50 as the midpoint of a concentration-inhibition curve. Regarding `CNc1ncc2cc(-c3cc(NS(=O)(=O)c4cccnc4)c(F)cc3C)c(C)nc2n1` [Example 1, N-(2-fluoro-4-methyl-5-(7-methyl-2-(methylamino)pyrido[2,3-d]pyrimidin-6-yl)phenyl)pyridine-3-sulfonamide], the concentration for half-maximal inhibition (IC50) in test [1] and in test [2] was 1 to 10 µM each time.

For `CNc1cc2nc(C)c(-c3cc(NS(=O)(=O)c4cc(Cl)cnc4OC)c(F)cc3F)cc2cn1` [Example 5, 5-chloro-N-(2,4-difluoro-5-(2-methyl-7-(methylamino)-1,6-naphthyridin-3-yl)phenyl)-2-methoxypyridine-3-sulfonamide], the half-inhibitory concentration (IC50) in test [1] was 0.1 to 0.5 µM; in test [2], 0.5 to 1 µM. In the same order, the values of `CNc1cc2nc(C)c(-c3ccc(F)c(NS(=O)(=O)c4cc(Cl)cnc4OC)c3)cc2cn1` [Example 7] are 0.5 to 1 µM and 0.1 to 0.5 µM. For `CNc1ncc2cc(-c3cc(NS(=O)(=O)c4cc(Cl)cnc4OC)c(F)cc3C)c(NC)nc2n1` [Example 10], in that order: 0.5 to 1 µM and 1 to 10 µM. In the same order, the values of `CNc1ncc2cc(-c3cc(NS(=O)(=O)c4cc(Cl)cnc4OC)c(F)cc3F)c(C)nc2n1` [Example 12] are 0.5 to 1 µM and 1 to 10 µM. In the case of `CNc1ncc2cc(-c3cc(NS(=O)(=O)c4cc(Cl)cnc4OC)c(F)cc3F)c(NC)nc2n1` [Example 13], the IC50 in test [1] was in the range of 0.5 to 1 µM; in test [2], 1 to 10 µM. As to `CNc1cc2nc(C)c(-c3cc(NS(=O)(=O)c4cc(Cl)cnc4OC)c(F)cc3Br)cc2cn1` [Example 18], the figures for the IC50 in test [1] and in test [2] were 0.5 to 1 µM and 1 to 10 µM, respectively. For `CNc1ncc2cc(-c3ccc(F)c(NS(=O)(=O)c4cc(Cl)cnc4OC)c3)c(C)nc2n1` [Example 20], in that order: 1 to 10 µM and 1 to 10 µM. In the same order, the values of `CNc1ncc2cc(-c3cc(NS(=O)(=O)c4cc(Cl)cnc4OC)c(C)cc3F)c(C)nc2n1` [Example 21] are 1 to 10 µM and 1 to 10 µM. For `CNc1ncc2cc(-c3cc(NS(=O)(=O)c4cc(Cl)cnc4OC)ccc3C)c(NC)nc2n1` [Example 24], in that order: 0.1 to 0.5 µM and 0.1 to 0.5 µM. Consider `COc1ncc(Cl)cc1S(=O)(=O)Nc1ccc(C)c(-c2ccc3cc(N)ncc3c2)c1` [Example 28], for which the IC50 in test [1] was in the range of 1 to 10 µM; in test [2], 0.1 to 0.5 µM. In the same order, the values of `COc1ncc(Cl)cc1S(=O)(=O)Nc1cccc(-c2ccc3cc(N)ncc3c2)c1F` [Example 29] are 0.1 to 0.5 µM and ≤ 0.1 µM. Regarding `CNc1cc2nc(C)c(-c3cc(NS(=O)(=O)c4cc(Cl)cnc4OC)ccc3C)cc2cn1` [Example 32], the IC50 in test [1] and in test [2] was ≤ 0.1 µM in each case.

In the case of `CNc1ncc2cc(-c3cc(NS(=O)(=O)c4cc(Cl)cnc4OC)cc(F)c3C)c(NC)nc2n1` [Example 34], the IC50 in test [1] is ≤ 0.1 µM; in test [2] it was 0.1 to 0.5 µM. As for `CNc1ncc2cc(-c3cc(F)cc(NS(=O)(=O)c4cc(Cl)cnc4OC)c3)ccc2n1` [Example 37], in test [1], the IC50 lay in the range of 1 to 10 µM. Take `CNc1ncc2cc(-c3cc(NS(=O)(=O)c4cncc(Cl)c4)c(F)cc3C)c(C)nc2n1` [Example 42]: the 50% inhibitory concentration (IC50) in test [1] and in test [2] was 1 to 10 µM throughout. Regarding `CNc1ncc2cc(-c3cccc(NS(=O)(=O)c4cc(Cl)cnc4OC)c3)ccc2n1` [Example 43], the IC50 in test [1] and in test [2] was 1 to 10 µM each time. As to `CNc1ncc2cc(-c3ccc(F)c(NS(=O)(=O)c4cc(Cl)cnc4OC)c3F)c(C)nc2n1` [Example 46], the IC50 in test [1] is 0.1 to 0.5 µM; in test [2], 1 to 10 µM. In the same order, the values of `CNc1ncc2cc(-c3cccc(NS(=O)(=O)c4cc(Cl)cnc4OC)c3)c(C)nc2n1` [Example 47] are ≤ 0.1 µM and 0.1 to 0.5 µM. For `CNc1ncc2cc(-c3cccc(NS(=O)(=O)c4cc(Cl)cnc4OC)c3C)ccc2n1` [Example 52], in that order: 0.1 to 0.5 µM and 0.1 to 0.5 µM. In the same order, the values of `CNc1ncc2cc(-c3cc(NS(=O)(=O)c4cc(Cl)cnc4OC)ccc3F)ccc2n1` [Example 54] are 0.5 to 1 µM and 0.1 to 0.5 µM. On to `CNc1ncc2cc(-c3cc(NS(=O)(=O)c4cc(Cl)cnc4OC)cc(F)c3F)ccc2n1` [Example 55], for which the IC50 in test [1] lay within 0.5 to 1 µM; in test [2] it was 0.1 to 0.5 µM. For `CNc1cc2ncc(-c3cc(F)cc(NS(=O)(=O)c4cc(Cl)cnc4OC)c3)cc2cn1` [Example 58], in that order: 1 to 10 µM and 1 to 10 µM. For `CNc1cc2ncc(-c3cc(NS(=O)(=O)c4cc(Cl)cnc4OC)ccc3F)cc2cn1` [Example 60], in that order: 0.1 to 0.5 µM and 0.5 to 1 µM.

In the case of `CNc1ncc2cc(-c3cc(NS(=O)(=O)c4cc(Cl)cnc4OC)ccc3Cl)ccc2n1` [Example 69], the IC50 in test [1] was 0.1 to 0.5 µM; in test [2], ≤ 0.1 µM. In the same order, the values of `CNc1ncc2cc(-c3cccc(NS(=O)(=O)c4ccc(OC)c(Cl)c4)c3F)ccc2n1` [Example 70] are 1 to 10 µM and 0.1 to 0.5 µM. For the compound `CNc1ncc2cc(-c3cc(F)cc(NS(=O)(=O)c4cc(Cl)cc(C(C)(C)O)c4Cl)c3)c(NC)nc2n1` [Example 120], the IC50 in test [1] is 1 to 10 µM. On the same count and under the same terms, the same measure for `CNc1nc2nc(NC(C)(C)C)ncc2cc1-c1cccc(NS(=O)(=O)c2cc(Cl)cnc2OC)c1F` [Example 124]: 0.1 to 0.5 µM. On the same count and under the same terms, the same measure for `CNc1ncc2cc(-c3cccc(NS(=O)(=O)c4cc(OC)c(Cl)cc4OC)c3F)c(NC)nc2n1` [Example 130]: 0.5 to 1 µM; for `CNc1ncc2cc(-c3cccc(NS(=O)(=O)c4cccnc4C(F)(F)F)c3F)c(NC)nc2n1` [Example 131]: 0.1 to 0.5 µM. In test [1], `CNc1ncc2cc(-c3cccc(NS(=O)(=O)c4cc(C(C)(C)C)ccc4OC)c3F)c(NC)nc2n1` [Example 134] gave a half-inhibitory concentration (IC50) of 1 to 10 µM. Still for that read-out and setting: to `CNc1nc2nc(NC3COC3)ncc2cc1-c1cccc(NS(=O)(=O)c2cc(Cl)cnc2OC)c1F` [Example 138] belongs 0.1 to 0.5 µM; to `CNc1nc2nc(NCCOC)ncc2cc1-c1cccc(NS(=O)(=O)c2cc(Cl)cnc2OC)c1F` [Example 139], 0.1 to 0.5 µM; to `CNc1ncc2cc(-c3cccc(NS(=O)(=O)c4cc(OC)ccc4OC)c3F)c(NC)nc2n1` [Example 140], 0.1 to 0.5 µM. `CNc1ncc2cc(-c3cccc(NS(=O)(=O)c4ccc(C#N)cc4Cl)c3F)c(NC)nc2n1` [Example 141]: in test [1], the IC50 lay within 1 to 10 µM. For the compound `CNc1ncc2cc(-c3cccc(NS(=O)(=O)c4cccc(C(C)=O)c4Cl)c3F)c(NC)nc2n1` [Example 146], the IC50 in test [1] fell in the range of 0.1 to 0.5 µM. In test [1], `CNc1nc2nc(NCC3COC3)ncc2cc1-c1cccc(NS(=O)(=O)c2cc(Cl)cnc2OC)c1F` [Example 149] displayed an IC50 of 0.5 to 1 µM. Still for that read-out and setting: the same measure for `CNc1ncc2cc(-c3cccc(NS(=O)(=O)c4cccc(C(=O)OC)c4Cl)c3F)c(NC)nc2n1` [Example 150]: 0.5 to 1 µM. In the case of `CNc1ncc2cc(-c3cccc(NS(=O)(=O)c4cc(C#N)cnc4OC)c3F)c(NC)nc2n1` [Example 152], the IC50 in test [1] is 0.1 to 0.5 µM. Same read-out and setting: to `CNc1ncc2cc(-c3cccc(NS(=O)(=O)c4cc(Cl)c(C)cc4OC)c3F)c(NC)nc2n1` [Example 157] belongs ≤ 0.1 µM; to `CNc1nc2nc(NC(=O)C3CC3)ncc2cc1-c1cccc(NS(=O)(=O)c2cc(Cl)cnc2OC)c1F` [Example 172], 0.1 to 0.5 µM.
